We go through 15 substances from patent publication US12370235B2, “Synthetic, non-natural antimicrobial peptides inspired by Staphylococcus auricularis delta toxin” (University of Saskatchewan, priority 2021, dated 2025).

Ends that are not written are not given here.

Assay [1] has as its system M. luteus ATCC 4698. The experiment in a line: MIC, broth dilution. The assay is classed as cell-based, Micrococcus luteus. As to conditions: for MIC (μg/mL) M. luteus: Table 4, liquid broth; for MIC M. luteus: M. luteus ATCC 4698. Here is the method:
(§1) MIC determination. MICs were measured using peptides with 95% purity. For bacterial studies, cation-adjusted Mueller Hinton (MH) broth was used as the growth medium whereas Yeast Peptone Dextrose (YPD; 10 g/L yeast extract, 20 g/L peptone, 20 g/L dextrose) was used for Candida spp. and other yeast. Microorganisms were diluted to an optical density of […] in MH or YPD broth and a 180 μl volume was mixed with 20 μl of peptide arrayed as a 2-fold dilution series in a flat-bottom 96-well microtitre plate. A control was performed using 20 μl of sterile water. Plates were incubated as standing cultures overnight at 37° C.
(§2) Determination of minimum inhibitory concentrations. The MICs were measured for bioactive peptides identified from the initial screen. For bacterial studies, cation-adjusted Mueller Hinton (MH) broth was used as the growth medium whereas YPD was used for C. albicans. Bacterial cultures were diluted to a OD value of 6×10^−4 in MH broth and a 180 μl volume was mixed with 20 μl of peptide arrayed as 2-fold dilution series in a 96-well plate. For the positive control, 20 μl of sterile water was used. Plates were incubated as standing cultures overnight at 37° C. The lowest peptide concentration that resulted no observed microbial growth after an overnight treatment was defined as the MIC.

Assay [2] concerns Mannheimia haemolytica ATCC 33393. The experiment in a line: MIC, broth dilution. The assay is classed as cell-based. The following applies: for MIC (μg/mL) M. haemolytica: Table 10, liquid broth; for MIC M. haemolytica: M. haemolytica ATCC 33393. Here is the method: as §1, §2
The ability of STIP3 variants to inhibit the growth of Mannheimia haemolytica ATCC 33393 was evaluated. This included an alanine scan of STIP3-1 (FIG. 8 & Table 10) as well as 30 rationally-designed STIPs that were evaluated in the preceding Examples against other pathogens (Table 11). Substitutions at a greater number of sites were tolerated in the context of antimicrobial activity. Moreover, the inclusion of basic natural and unnatural amino acids (e.g. lysine, ornithine, and arginine) at positions 3, 4 and 11 (i.e. X1, X2, and X4 of SEQ ID NO: 32) to afford a more uniformly cationic peptide increased activity against M. haemolytica.

In assay [3] the test system is S. aureus ATCC 29213. Briefly: MIC, broth dilution. Type of assay: cell-based, Staphylococcus aureus. The following applies: for MIC (μg/mL) S. aureus: liquid broth; for MIC S. aureus: S. aureus ATCC 29213. As for the experimental part:
as §1, §2

Assay [4] concerns C. albicans MYA-2876. The experiment in a line: MIC, YPD broth. Type of assay: cell-based, Candida albicans. As to conditions: Candida albicans MYA-2876. Here is the method: as §1, §2

As to “TAGGLVKWILDTVKKFA [V2A, TAGGLVKWILDTVKKFA]”, in assay [1], the “MIC (μg/mL) M. luteus” value came to 50 µg/mL. The “MIC (μg/mL) M. haemolytica” value in assay [2] came to 100 µg/mL. In addition, the “MIC (μg/mL) S. aureus” value in assay [3] (Table 4) is “> (> = >200 μg/mL (maximum concentration tested))”; in assay [3] (Table 10) it was “> (the use of > indicates an MIC > 200 μg/mL; the maximum concentration tested)”.
For “TVGGAVKWILDTVKKFA [L5A, TVGGAVKWILDTVKKFA]”, the “MIC (μg/mL) M. luteus” value in assay [1] worked out at 100 µg/mL. Also, in assay [2], the “MIC (μg/mL) M. haemolytica” value is “> (the use of > indicates an MIC > 200 μg/mL; the maximum concentration tested)”. Besides, the “MIC (μg/mL) S. aureus” value is “> (> = >200 μg/mL (maximum concentration tested))” in assay [3] (Table 4) and “> (the use of > indicates an MIC > 200 μg/mL; the maximum concentration tested)” in assay [3] (Table 10).
Regarding “TVGGLAKWILDTVKKFA [V6A, TVGGLAKWILDTVKKFA]”, the “MIC (μg/mL) M. luteus” value in assay [1] was 50 µg/mL. Further, in assay [2], the “MIC (μg/mL) M. haemolytica” value was 100 µg/mL. Moreover, the “MIC (μg/mL) S. aureus” value in assay [3] (Table 4) is recorded as “> (> = >200 μg/mL (maximum concentration tested))”; in assay [3] (Table 10), “> (the use of > indicates an MIC > 200 μg/mL; the maximum concentration tested)”.
For “TVGGLVAWILDTVKKFA [K7A, TVGGLVAWILDTVKKFA]” the same measures were 200 µg/mL, “> (the use of > indicates an MIC > 200 μg/mL; the maximum concentration tested)”, “> (> = >200 μg/mL (maximum concentration tested))” and “> (the use of > indicates an MIC > 200 μg/mL; the maximum concentration tested)”.
For “TVGGLVKAILDTVKKFA [W8A, TVGGLVKAILDTVKKFA]” the same measures were 100 µg/mL, 200 µg/mL, “> (> = >200 μg/mL (maximum concentration tested))” and “> (the use of > indicates an MIC > 200 μg/mL; the maximum concentration tested)”.
In the same order, the values of “TVGGLVKWALDTVKKFA [I9A, TVGGLVKWALDTVKKFA]” are 200 µg/mL, “> (the use of > indicates an MIC > 200 μg/mL; the maximum concentration tested)”, “> (> = >200 μg/mL (maximum concentration tested))” and “> (the use of > indicates an MIC > 200 μg/mL; the maximum concentration tested)”.
On to “TVGGLVKWIADTVKKFA [L10A, TVGGLVKWIADTVKKFA]”, for which the “MIC (μg/mL) M. luteus” value in assay [1] was determined as 200 µg/mL. For the same substance, the “MIC (μg/mL) M. haemolytica” value in assay [2] was determined as 200 µg/mL. Also, the results for the “MIC (μg/mL) S. aureus” value in assay [3] (Table 4) and in assay [3] (Table 10) were “> (> = >200 μg/mL (maximum concentration tested))” and “> (the use of > indicates an MIC > 200 μg/mL; the maximum concentration tested)”, respectively.
Take “TVGGLVKWILDTAKKFA [V13A, TVGGLVKWILDTAKKFA]”: in assay [1], the “MIC (μg/mL) M. luteus” value was 50 µg/mL. For the same substance, in assay [2], the “MIC (μg/mL) M. haemolytica” value was determined as 200 µg/mL. For the same substance, the “MIC (μg/mL) S. aureus” value in assay [3] (Table 4) amounted to 200 µg/mL.
Consider “TVGGLVKWILDTVKKAA [F16A, TVGGLVKWILDTVKKAA]”, for which the “MIC (μg/mL) M. luteus” value in assay [1] was 200 µg/mL. The “MIC (μg/mL) M. haemolytica” value in assay [2] is “> (the use of > indicates an MIC > 200 μg/mL; the maximum concentration tested)”. Also, the results for the “MIC (μg/mL) S. aureus” value in assay [3] (Table 4) and in assay [3] (Table 10) were “> (> = >200 μg/mL (maximum concentration tested))” and “> (the use of > indicates an MIC > 200 μg/mL; the maximum concentration tested)”, respectively.
Consider TVKSFVNLILDTVKKYAK [STIP8-1], for which the “MIC M. luteus” value in assay [1] came out at 100 µg/mL. In addition, the “MIC C. albicans” value in assay [4] turned out to be 100 µg/mL. Further, the “MIC M. haemolytica” value in assay [2] is given as “> (the use of > indicates an MIC >200 μg/mL; the maximum concentration tested)”. In addition, the “MIC S. aureus” value in assay [3] is “> (the use of > indicates an MIC >200 μg/mL; the maximum concentration tested)”.
For the substance TVKSFVNLILKTVKKYAK [STIP8-2], the “MIC M. luteus” value in assay [1] turned out to be 6.25 µg/mL. The “MIC C. albicans” value in assay [4] stood at 100 µg/mL. Moreover, the “MIC M. haemolytica” value in assay [2] worked out at 100 µg/mL. Also, in assay [3], the “MIC S. aureus” value is recorded as “> (the use of > indicates an MIC >200 μg/mL; the maximum concentration tested)”.
As to TVKSFVNLILKTVKKYAK-NH2 [STIP8-3], the “MIC M. luteus” value in assay [1] amounted to 3.13 µg/mL. In assay [4], the “MIC C. albicans” value is “> (the use of > indicates an MIC >200 μg/mL; the maximum concentration tested)”. For the same substance, the “MIC M. haemolytica” value in assay [2] turned out to be 50 µg/mL. Moreover, the “MIC S. aureus” value in assay [3] is recorded as “> (the use of > indicates an MIC >200 μg/mL; the maximum concentration tested)”.
Regarding TVTKFVKLIAETVKKFTK [STIP9-1], the “MIC M. luteus” value in assay [1] was 50 µg/mL. For the same substance, the “MIC C. albicans” value in assay [4] turned out to be 100 µg/mL. Moreover, the “MIC M. haemolytica” value in assay [2] amounted to 200 µg/mL. The “MIC S. aureus” value in assay [3] is listed as “> (the use of > indicates an MIC >200 μg/mL; the maximum concentration tested)”.
For TVTKFVKLIAKTVKKFTK [STIP9-2] the same measures were 6.25 µg/mL, 25 µg/mL, 100 µg/mL and “> (the use of > indicates an MIC >200 μg/mL; the maximum concentration tested)”.
For TVTKFVKLIAKTVKKFTK-NH2 [STIP9-3] the same measures were 3.13 µg/mL, 100 µg/mL, 100 µg/mL and “> (the use of > indicates an MIC >200 μg/mL; the maximum concentration tested)”.
